Test results reported in patent US8466149B2, “6-substituted sulfonyl azabicyclo[3.2.1]octanes useful to inhibit 11β-hydroxysteroid dehydrogenase type-I” (Merck Sharp & Dohme Corp., priority 2007, dated 2013).

Key:
Mouse 11β-HSD-1 = Mouse 11β-HSD-1 (Mus musculus, UniProt P50172); assay: In vitro 11β-HSD1 activity assay, mouse enzyme; assay type: biochemical
Protocol: (§1) Measurement of 11β-HSD1 activity
(§2) 11β-HSD1 enzymatic activity was measured in a 50 μl reaction containing 20 mM NaPO4 pH 7.5, 0.1 mM MgCl2, 3 mM NADPH (prepared fresh daily), 125 nM ^3H-cortisone (American Radiochemicals) and 0.5 μg membrane. The reaction was incubated at room temperature for 1 hr before it was stopped by addition of […] containing 20 mM NaPO4 pH 7.5, 30 μM 18β-glycyrrhetinic acid, 1 μg/ml monoclonal anti-cortisol antibody (Biosource) and 2 mg/ml anti-mouse antibody coated scintillation proximity assay (SPA) beads (Amersham Bioscience). The mixture was incubated at room temperature for 2 hrs with vigorous shaking and analyzed on TopCount scintillation counter.

Human 11β-HSD1 = target: T1, Human 11β-HSD1 (Homo sapiens, UniProt P28845); assay: In vitro 11β-HSD1 activity assay (SPA, 3H-cortisone, membranes); assay type: biochemical; settings: human 11β-HSD1 membranes, 125 nM 3H-cortisone, read-out: Human 11β-HSD-1 IC50
T1 construct: myc (N); made in house; host or cells: Sf9 cells (baculovirus, Bac-to-Bac)
Protocol: In vitro 11β-HSD1 activity assay Preparation of 11β-HSD1 membranes
Human 11β-HSD1 with N-terminal myc tag was expressed in Sf9 cells using baculovirus Bac-to-Bac expression system (Invitrogen) according to manufacturer's instructions. Cells were harvested three days after infection and washed in PBS before frozen. To make membranes, the cells were resuspended in buffer A (20 mM Tris-HCl, pH7.4, 100 mM NaCl, 2 mM EDTA, 2 mM EGTA and Complete™ protease inhibitor tablets (Roche Molecular Biochemicals)), and lysed in a nitrogen bomb at 900 psi. The cell lysate was centrifuged at 600 g for 10 min to remove nuclei and large cell debris. The supernatant was centrifuged at 100,000 g for 1 hr. The membrane pellet was resuspended in buffer A, flash-frozen in liquid nitrogen and stored at −70° C. before use.
as §1, §2

11β-HSD-1 = target: T2, 11β-HSD-1 (Mus musculus, UniProt P50172); assay: In vivo screen for inhibition of 11β-HSD-1 (mouse cortisone challenge, plasma cortisol); settings: 30 mpk oral, lean male C57BI/6N mice, cortisone 1 mg/kg sc, plasma cortisol by ELISA
T2 construct: from tissue; host or cells: whole animal, C57Bl/6N mice
Protocol: In Vivo Screen for Inhibition of 11β-HSD-1
Lean male C57BI/6N mice were orally dosed with a solution of dexamethasone (0.5 mg/kg) and test agent or vehicle (20% HPβCD (10 ml/kg)). One hour later, cortisone was administered (1 mg/kg sc in sesame oil). One hour after cortisone administration, animals were euthanized for blood collection, and plasma cortisol levels were determined with a commercially available ELISA.

T2 sequence (P50172 whole entry): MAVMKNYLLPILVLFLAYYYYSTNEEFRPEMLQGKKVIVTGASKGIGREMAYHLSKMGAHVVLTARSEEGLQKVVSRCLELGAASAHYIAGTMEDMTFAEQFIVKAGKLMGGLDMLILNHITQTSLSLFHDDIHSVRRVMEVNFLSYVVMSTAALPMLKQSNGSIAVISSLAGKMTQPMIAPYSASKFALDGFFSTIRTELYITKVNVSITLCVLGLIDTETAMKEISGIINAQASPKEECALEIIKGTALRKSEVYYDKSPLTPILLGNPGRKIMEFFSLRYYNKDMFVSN
Sequence of Mouse 11β-HSD-1 (P50172 whole entry): as above
T1 sequence (P28845 whole entry): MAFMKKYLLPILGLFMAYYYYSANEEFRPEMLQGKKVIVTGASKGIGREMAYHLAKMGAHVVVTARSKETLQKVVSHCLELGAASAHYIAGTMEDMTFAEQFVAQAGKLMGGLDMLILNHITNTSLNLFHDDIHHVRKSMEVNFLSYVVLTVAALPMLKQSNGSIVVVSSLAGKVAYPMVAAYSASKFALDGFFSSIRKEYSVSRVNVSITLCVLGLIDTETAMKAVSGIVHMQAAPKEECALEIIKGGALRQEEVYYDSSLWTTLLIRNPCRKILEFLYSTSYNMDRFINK

Compound	IC50 (Mouse 11β-HSD-1)	IC50 (Human 11β-HSD1)	Mouse cort. challenge % I @ 30 mpk (11β-HSD-1)
CCCCc1ccc(S(=O)(=O)N2CC3(C)CC2CC(C)(C)C3)cc1 (stereo not drawn) [compound 65]	950 nM	372 nM	
COC(C)c1ccc(S(=O)(=O)N2CC3(C)CC2CC(C)(C)C3)cc1 (stereo not drawn) [compound 45]	27 nM	19 nM	16%
CC1(C)CC2CC(C)(CN2S(=O)(=O)c2ccc(C(C)(C)O)cc2)C1 (stereo not drawn) [compound 50]	43 nM	7 nM	43%
CCC(C)(C)c1ccc(S(=O)(=O)N2CC3(C)CC2CC(C)(C)C3)cc1 (stereo not drawn) [Compound No. 23]	19 nM	28 nM	26%
Cc1ccccc1S(=O)(=O)N1CC2(C)CC1CC(C)(C)C2 (stereo not drawn) [Compound No. 5]	18200 nM	3010 nM	
CC1(C)CC2CC(C)(CN2S(=O)(=O)c2ccc(C(F)(F)F)cc2)C1 (stereo not drawn) [compound 48]	686 nM	268 nM	
CCC(C)(O)c1ccc(S(=O)(=O)N2CC3(C)CC2CC(C)(C)C3)cc1 (stereo not drawn) [compound 69]	68 nM	30 nM	
CC1(C)CC2CC(C)(CN2S(=O)(=O)c2ccc(-c3cnco3)cc2)C1 (stereo not drawn) [compound 62]	309 nM	96 nM	
CC1(C)CC2CC(C)(CN2S(=O)(=O)c2ccc(C(C)(C)C)cc2)C1 (stereo not drawn) [Compound No. 1]	71 nM	31 nM	30%
CC1(C)CC2CC(C)(CN2S(=O)(=O)c2ccc(-c3ccccc3)cc2)C1 (stereo not drawn) [compound 25]	364 nM	169 nM	
CC1(C)CC2CC(C)(CN2S(=O)(=O)c2ccc(C3CCCCC3)cc2)C1 (stereo not drawn) [compound 61]	165 nM	415 nM	
CC1(C)CC2CC(C)(CN2S(=O)(=O)c2ccc(Cl)cc2)C1 (stereo not drawn) [compound 13]	2480 nM	407 nM	
CC1(C)CC2CC(C)(CN2S(=O)(=O)Cc2ccccc2)C1 (stereo not drawn) [compound 4]	7930 nM	3390 nM	
CCC(C)c1ccc(S(=O)(=O)N2CC3(C)CC2CC(C)(C)C3)cc1 (stereo not drawn) [compound 68]	112 nM	55 nM	

Further molecules by falling IC50 (Mouse 11β-HSD-1), results first:

IC50 (Mouse 11β-HSD-1)	IC50 (Human 11β-HSD1)	Mouse cort. challenge % I @ 30 mpk (11β-HSD-1)	Compound
28200 nM	1410 nM		CC1(C)CC2CC(C)(CN2S(=O)(=O)c2ccccc2Cl)C1 (stereo not drawn) [compound 12]
13300 nM	5710 nM		CC1(C)CC2CC(C)(CN2S(=O)(=O)c2ccccc2C#N)C1 (stereo not drawn) [compound 29]
5940 nM	126 nM		CC1(C)CC2CC(C)(CN2S(=O)(=O)c2ccc([N+](=O)[O-])cc2)C1 (stereo not drawn) [compound 75]
3170 nM	2510 nM		CC1(C)CC2CC(C)(CN2S(=O)(=O)c2ccc(I)cc2)C1 (stereo not drawn) [compound 32]
3170 nM	2510 nM		COc1cccc(S(=O)(=O)N2CC3(C)CC2CC(C)(C)C3)c1 (stereo not drawn) [compound 10]
1870 nM	407 nM		CC1(C)CC2CC(C)(CN2S(=O)(=O)c2ccc(Cl)c3nonc23)C1 (stereo not drawn) [compound 3]
1820 nM	126 nM		CC1(C)CC2CC(C)(CN2S(=O)(=O)c2ccc(C#N)cc2)C1 (stereo not drawn) [compound 76]
732 nM	139 nM		CC(=O)c1ccc(S(=O)(=O)N2CC3(C)CC2CC(C)(C)C3)cc1 (stereo not drawn) [Compound No. 16]
670 nM	247 nM		Cc1ccc(S(=O)(=O)N2CC3(C)CC2CC(C)(C)C3)cc1 (stereo not drawn) [Compound No. 6]
420 nM	190 nM		CCc1ccc(S(=O)(=O)N2CC3(C)CC2CC(C)(C)C3)cc1 (stereo not drawn) [compound 9]
305 nM	111 nM		CC1(C)CC2CC(C)(CN2S(=O)(=O)c2ccc(-c3csnn3)cc2)C1 (stereo not drawn) [compound 63]
217 nM	340 nM		CC(C)Oc1ccc(S(=O)(=O)N2CC3(C)CC2CC(C)(C)C3)cc1 (stereo not drawn) [compound 64]
127 nM	67 nM		CC(C)c1ccc(S(=O)(=O)N2CC3(C)CC2CC(C)(C)C3)cc1 (stereo not drawn) [compound 17]
87 nM	10 nM		CCOC(C)c1ccc(S(=O)(=O)N2CC3(C)CC2CC(C)(C)C3)cc1 (stereo not drawn) [compound 46]
67 nM	16 nM	63%	CC(O)c1ccc(S(=O)(=O)N2CC3(C)CC2CC(C)(C)C3)cc1 (stereo not drawn) [compound 44]
11 nM	23 nM	19%	COC(C)(C)c1ccc(S(=O)(=O)N2CC3CC(C)(C2)CC3(C)C)cc1 (stereo not drawn) [compound 49]
